According to patent US20220280661A1, “GLUCOCORTICOID RECEPTOR RADIOLIGANDS AND METHODS FOR THEIR PREPARATION AND USE” (The Regents of the University of California, priority 2019, published 2022):
Where two headings read alike, the source gives them in different places.

Columns and labels:
[1] = Plasma protein binding, rapid equilibrium dialysis, mouse plasma; assay type: in vitro ADME; details: mouse, plasma, pH 7.4, mouse plasma
Experimental: (§1) Plasma Protein Binding Studies. The rapid equilibrium dialysis (RED) device inserts along with a Teflon base plate (Pierce, Rockford, Ill.) were used for the binding studies. The pH of the human or mouse plasma was adjusted to 7.4 prior to the experiment. DMSO stocks (1 mM) were spiked into the plasma to make a final concentration of 2 μM. The spiked plasma solutions (300 μL) were placed into the sample chamber (indicated by the red ring); and 500 μL of PBS buffer, pH 7.4, was placed into the adjacent chamber. The plate was incubated at 37° C. on an orbital shaker (250 rpm) for 4 hours.
(§2) After 4 hours, from the RED plate, aliquots (100 μL) were removed from each side of the insert (plasma and buffer) and dispensed into the 96-well plate. Subsequently, 100 μL of blank plasma was added to the buffer samples and 100 μL of blank buffer was added to all the collected plasma samples. 300 μL of quench solution (50% acetonitrile, 50% methanol, and 0.05% formic acid, warmed up at 37° C.) containing internal standards was added to each well. Plates were sealed, vortexed, and centrifuged at 4° C. for 15 minutes at 4000 rpm. The supernatant was transferred to fresh plates for LC/MS/MS analysis. The sample were analyzed on LC/MS/MS using an AB Sciex API 4000 instrument, coupled to a Shimadzu LC-20AD LC Pump system. Analytical samples were separated using a Waters Atlantis T3 dC18 reverse phase HPLC column (20 mm×2.1 mm) at a flow rate of 0.5 mL/min. The mobile phase consisted of 0.1% formic acid in water (solvent A) and 0.1% formic acid in acetonitrile (solvent B).
(§3) The percentage of test compound bound to protein was calculated by the following equations:
(§4) % Free=(Concentration in buffer chamber/Concentration in plasma chamber)×100%

plasma protein = test: as above; assay type: in vitro ADME; details: plasma (rapid equilibrium dialysis device), pH 7.4, mouse plasma
Experimental: as §1, §2, §3, §4

- fraction unbound at 4 h, 2 μM ([1]; duplicate, read-out: % Bound (converted)): < 0.0001
- fraction unbound at 4 h, 2 μM ([1]; read-out: % Bound Average (converted)): < 0.0001
- recovery at 4 h, 2 μM (plasma protein): 100%
SMILES: COc1cccc2c1-c1ccc3c(c1C(Cc1ccc(F)cc1)O2)C(C)=CC(C)(C)N3 (racemic) [YJH08, 5-(4-fluorobenzyl)-10-methoxy-2,2,4-trimethyl-2,5-dihydro-1H-chromeno[3,4-f]quinoline]
